Laboratory results: ChEMBL document CHEMBL3871303, “In vivo and in silico anti-inflammatory mechanism of action of the semisynthetic (-)-cubebin derivatives (-)-hinokinin and (-)-O-benzylcubebin” (2017)

Experiments:
Type in all cases: functional
Rattus norvegicus [1] = experiment: Antiinflammatory activity in Wistar rat assessed as inhibition of dextran-induced paw edema at 40 mg/kg, po administered 30 mins prior to dextran treatment measured after 3 hrs
Rattus norvegicus [2] = experiment: Antiinflammatory activity in Wistar rat assessed as inhibition of PGE2-induced paw edema at 40 mg/kg, po administered 30 mins prior to PGE2 treatment measured after 3 hrs
Rattus norvegicus [3] = experiment: Antiinflammatory activity in Wistar rat assessed as inhibition of dextran-induced paw edema administered orally 30 mins prior to dextran treatment measured after 3 hrs
Rattus norvegicus [4] = experiment: Antiinflammatory activity in Wistar rat assessed as inhibition of PGE2-induced paw edema at 10 mg/kg, po administered 30 mins prior to PGE2 treatment measured after 3 hrs

Row | Structure (SMILES) | inhibition in vivo at 40 mg/kg (Rattus norvegicus [1]) [%] | inhibition in vivo at 40 mg/kg (Rattus norvegicus [2]) [%] | inhibition (INH) (Rattus norvegicus [3]) [%] | inhibition in vivo at 10 mg/kg (Rattus norvegicus [4]) [%]
1 | O=C1OC[C@@H](Cc2ccc3c(c2)OCO3)[C@@H]1Cc1ccc2c(c1)OCO2 | 18.3 | 59.2 |  | 
2 | c1ccc(COC2OC[C@@H](Cc3ccc4c(c3)OCO4)[C@@H]2Cc2ccc3c(c2)OCO3)cc1 (stereo partly specified) | 3.5 | 66 |  | 
3 | CN1CCC(=C2c3ccccc3C=Cc3ccccc32)CC1 [CYPROHEPTADINE] |  |  | 56 | 
4 | COc1ccc2c(c1)c(CC(=O)O)c(C)n2C(=O)c1ccc(Cl)cc1 [INDOMETHACIN] |  |  |  | 54
